Measurements taken from US20230312550A1, “N-(2-(4-CYANOTHIAZOLIDIN-3-YL)-2-OXOETHYL)-QUINOLINE-4-CARBOXAMIDES” (AstraZeneca AB, priority 2020, published 2023).
≈ marks a conversion by molar mass, not a printed value.

Key:
[1] = Metabolic stability in human liver microsomes (HLM); conditions: for microsomal CLint: human
Protocol: Metabolic stability in HLM was measured as described in J Comput Aided Mol Des 2015, 29, 795.

[2] = biological target: Prolyl endopeptidase, Prolyl Oligopeptidase (hPREP) (Homo sapiens (Human), UniProt P48147); assay: hPrep inhibition assay; format: biochemical; conditions: hPREP 0.6 nM, Z-Gly-Pro-amino-methylcoumarin 50 μM; read-out: PREP IC50
Protocol: Compounds were tested in a biochemical inhibition assay using Prolyl endopeptidase, Prolyl Oligopeptidase (hPREP) enzyme at 0.6 nM FAC (R&D Systems, 4308-SE) and the substrate Z-Gly-Pro-amino-methylcoumarin (Bachem, I-1145) at 50 μM FAC. 384 Low volume black plates (Greiner #784076) were used. […] Plates were incubated for 15 min at rt in dark. 4 μL, 100 μM substrate solution (25 mM Tris HCl, 250 mM NaCl, 0.01% Triton X-100, 5 mM Glutathione, pH 7.5) was added to each well. Plates were centrifuged at 1000 rpm and incubated for 20 min at rt in dark. The plates were read on a PHERAstar® reader with excitation 340 nm and emission 460 nm. Data were analyzed in Genedata Screener®. IC50 values were determined by plotting % inhibition versus log compound concentration and using a one site dose response model.

[3] = biological target: human Fibroblast activation protein alpha (hFAP) (Homo sapiens (Human), UniProt Q12884); assay: hFAP inhibition assay (tight binders); format: biochemical; conditions: Ala-Pro-AMC 20 μM, n = 1 or geometric mean n = 2-6; further: hFAP 2.4 pM
Protocol: The plates were read on a PHERAstar® reader with excitation 340 nm and emission 460 nm. Data were analyzed in Genedata Screener®. IC50 values were determined by plotting % inhibition versus log compound concentration and using a one site dose response model.

[4] = Metabolic stability in rat hepatocytes (rHep); conditions: n = 1 or geometric mean of n = 2-3
hFAP (M39-A757) = hFAP (M39-A757) (Homo sapiens (Human), UniProt Q12884); assay: hFAP binding assay (surface plasmon resonance); conditions: SPR, 20° C.; for hFAP Binding assay k(off) / hFAP Binding assay k(on): single cycle kinetics; for Kd: n = 1 or geometric mean n = 2-4
[5] = HLM CLint, n = 1 or average of n = 2-3
[6] = kinetic from dmso stock, Solubility, kinetic solubility, n = 1 or average of n = 2-3
[7] = kinetic solubility, n = 1 or average of n = 2-3

Sequence of hFAP (M39-A757) (Q12884 39-757): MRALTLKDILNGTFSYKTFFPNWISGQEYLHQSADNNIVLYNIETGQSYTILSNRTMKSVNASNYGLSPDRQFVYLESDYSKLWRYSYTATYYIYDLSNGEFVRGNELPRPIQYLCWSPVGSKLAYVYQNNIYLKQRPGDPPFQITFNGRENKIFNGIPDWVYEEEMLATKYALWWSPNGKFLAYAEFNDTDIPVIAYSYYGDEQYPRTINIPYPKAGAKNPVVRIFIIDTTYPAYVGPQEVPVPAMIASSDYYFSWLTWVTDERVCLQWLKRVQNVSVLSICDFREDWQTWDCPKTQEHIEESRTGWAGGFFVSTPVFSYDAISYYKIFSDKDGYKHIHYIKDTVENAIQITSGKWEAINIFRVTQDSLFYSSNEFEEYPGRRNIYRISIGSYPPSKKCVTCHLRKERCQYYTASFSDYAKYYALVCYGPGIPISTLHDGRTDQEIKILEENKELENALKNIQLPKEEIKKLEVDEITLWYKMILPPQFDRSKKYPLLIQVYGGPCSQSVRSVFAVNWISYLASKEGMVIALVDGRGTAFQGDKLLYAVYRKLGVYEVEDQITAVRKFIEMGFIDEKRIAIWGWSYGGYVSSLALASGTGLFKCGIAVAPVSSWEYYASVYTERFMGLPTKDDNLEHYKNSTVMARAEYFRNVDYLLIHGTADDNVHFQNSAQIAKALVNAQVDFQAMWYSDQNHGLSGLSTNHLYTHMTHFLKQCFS
Sequence of human Fibroblast activation protein alpha (hFAP) (Q12884 38-760): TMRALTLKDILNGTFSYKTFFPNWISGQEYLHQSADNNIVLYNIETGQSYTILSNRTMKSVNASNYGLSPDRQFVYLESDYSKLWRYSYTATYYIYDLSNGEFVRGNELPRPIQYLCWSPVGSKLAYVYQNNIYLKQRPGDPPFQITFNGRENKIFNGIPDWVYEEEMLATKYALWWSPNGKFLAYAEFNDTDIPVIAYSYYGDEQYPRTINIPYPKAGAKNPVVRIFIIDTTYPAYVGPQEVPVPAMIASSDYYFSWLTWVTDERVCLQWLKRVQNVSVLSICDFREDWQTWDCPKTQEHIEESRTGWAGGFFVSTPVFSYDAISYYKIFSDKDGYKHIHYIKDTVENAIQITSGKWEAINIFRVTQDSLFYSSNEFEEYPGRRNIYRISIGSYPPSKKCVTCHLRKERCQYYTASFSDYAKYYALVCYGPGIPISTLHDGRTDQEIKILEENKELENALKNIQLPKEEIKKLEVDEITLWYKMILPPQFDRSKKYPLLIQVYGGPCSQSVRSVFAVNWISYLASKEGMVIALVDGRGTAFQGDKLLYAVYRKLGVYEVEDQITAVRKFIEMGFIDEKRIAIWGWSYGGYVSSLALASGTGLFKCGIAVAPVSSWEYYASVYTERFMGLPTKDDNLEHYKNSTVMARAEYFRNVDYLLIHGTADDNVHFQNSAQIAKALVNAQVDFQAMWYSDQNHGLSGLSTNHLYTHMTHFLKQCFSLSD
Sequence of Prolyl endopeptidase, Prolyl Oligopeptidase (hPREP) (P48147 whole entry): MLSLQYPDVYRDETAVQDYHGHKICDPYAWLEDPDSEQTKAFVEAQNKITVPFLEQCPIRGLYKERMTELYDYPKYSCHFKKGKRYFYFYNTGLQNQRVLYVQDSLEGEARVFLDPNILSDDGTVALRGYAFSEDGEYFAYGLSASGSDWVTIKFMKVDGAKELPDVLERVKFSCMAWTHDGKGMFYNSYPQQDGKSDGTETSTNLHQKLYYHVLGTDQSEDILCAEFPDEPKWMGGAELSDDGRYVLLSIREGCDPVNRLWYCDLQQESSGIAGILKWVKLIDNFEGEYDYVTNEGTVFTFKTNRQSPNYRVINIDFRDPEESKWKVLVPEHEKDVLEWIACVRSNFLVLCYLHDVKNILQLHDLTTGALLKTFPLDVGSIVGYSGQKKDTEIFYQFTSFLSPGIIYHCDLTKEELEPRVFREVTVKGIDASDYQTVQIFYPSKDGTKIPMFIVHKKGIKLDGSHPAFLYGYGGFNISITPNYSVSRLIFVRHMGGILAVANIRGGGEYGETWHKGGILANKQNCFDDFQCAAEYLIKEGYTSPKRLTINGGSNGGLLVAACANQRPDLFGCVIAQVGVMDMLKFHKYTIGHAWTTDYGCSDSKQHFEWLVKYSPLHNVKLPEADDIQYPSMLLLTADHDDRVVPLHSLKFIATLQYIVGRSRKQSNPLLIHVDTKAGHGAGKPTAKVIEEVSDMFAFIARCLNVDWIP
Protocol for Kinetic solubility: Kinetic solubility was measured as described in Comput Aided Mol Des 2015, 29, 795.

SMILES | microsomal CLint [1, 5] | IC50 [2] | IC50 [3] | rHep CLint [4] | solubility (Kinetic solubility; [6]) | hFAP Binding assay k(off) (hFAP (M39-A757)) | hFAP Binding assay k(on) (hFAP (M39-A757)) | Kd (hFAP (M39-A757)) | solubility (Kinetic solubility; [7]) | HLM CLint ([1]; n = 1 or average of n = 2-3) | microsomal CLint [1] | solubility (Kinetic solubility; kinetic from dmso stock)
COCC[C@@H]1COCCN1c1ccc2nccc(C(=O)NCC(=O)N3CSC[C@H]3C#N)c2c1 [Example 95, N-(2-((R)-4-Cyanothiazolidin-3-yl)-2-oxoethyl)-6-((R)-3-(2-methoxyethyl)-morpholino)quinoline-4-carboxamide] | 63 µL/min/mg | 740 nM | 0.16 nM | 13 μL/min/1E6 | 960 µM (≈ 451 µg/mL) | 0.000056 s⁻¹ | 2900000 M⁻¹ s⁻¹ | 0.024 nM |  |  |  | 
C[C@@H]1CN(c2ccc3nccc(C(=O)NCC(=O)N4CSC[C@H]4C#N)c3c2)C[C@H]1C (single isomer, unassigned) [Example 225, N-(2-((R)-4-Cyanothiazolidin-3-yl)-2-oxoethyl)-6-((3R*,4R*)-3,4-dimethylpyrrolidin-1-yl)quinoline-4-carboxamide] | 110 µL/min/mg | 470 nM | 0.11 nM | 37 μL/min/1E6 |  |  |  | 0.077 nM | 2.2 µM (≈ 0.932 µg/mL) |  |  | 
N#C[C@@H]1CSCN1C(=O)CNC(=O)c1ccnc2ccc(N3CC(OC(F)(F)F)C3)cc12 [Example 132, (R)—N-(2-(4-Cyanothiazolidin-3-yl)-2-oxoethyl)-6-(3-(trifluoromethoxy)-azetidin-1-yl)quinoline-4-carboxamide] | 38 µL/min/mg | 3700 nM | 0.41 nM | 8.5 μL/min/1E6 | 13 µM (≈ 6.05 µg/mL) | 0.00014 s⁻¹ | 270000 M⁻¹ s⁻¹ | 0.52 nM |  |  |  | 
N#C[C@@H]1CSCN1C(=O)CNC(=O)c1ccnc2ccc(N3CC(CCC(F)(F)F)C3)cc12 [Example 142, (R)—N-(2-(4-Cyanothiazolidin-3-yl)-2-oxoethyl)-6-(3-(3,3,3-trifluoropropyl)azetidin-1-yl)quinoline-4-carboxamide] | 43 µL/min/mg | 530 nM | 0.088 nM | 6.7 μL/min/1E6 | 1.8 µM (≈ 0.86 µg/mL) | 0.000055 s⁻¹ | 1800000 M⁻¹ s⁻¹ | 0.028 nM |  |  |  | 
CC(F)(F)CC1CN(c2ccc3nccc(C(=O)NCC(=O)N4CSC[C@H]4C#N)c3c2)C1 [Example 140, (R)—N-(2-(4-Cyanothiazolidin-3-yl)-2-oxoethyl)-6-(3-(2,2-difluoropropyl)-azetidin-1-yl)quinoline-4-carboxamide] | 32 µL/min/mg | 840 nM | 0.1 nM | 7.7 μL/min/1E6 | 39 µM (≈ 17.9 µg/mL) | 0.00016 s⁻¹ | 2600000 M⁻¹ s⁻¹ | 0.064 nM |  |  |  | 
N#C[C@@H]1CSCN1C(=O)CNC(=O)c1ccnc2ccc(N3CC4(CC(C(F)(F)F)C4)C3)cc12 [Example 150, (R)—N-(2-(4-Cyanothiazolidin-3-yl)-2-oxoethyl)-6-(6-(trifluoromethyl)-2-azaspiro[3.3]heptan-2-yl)quinoline-4-carboxamide] |  | 2000 nM | 0.5 nM | 5 μL/min/1E6 |  | 0.000043 s⁻¹ | 280000 M⁻¹ s⁻¹ | 0.16 nM |  |  | 49 µL/min/mg | 77 µM (≈ 37.7 µg/mL)
N#C[C@@H]1CSCN1C(=O)CNC(=O)c1ccnc2ccc(N3C[C@H]4CCC[C@@H](C3)O4)cc12 [Example 194, 6-((1R,5S)-9-Oxa-3-azabicyclo[3.3.1]nonan-3-yl)-N-(2-((R)-4-cyano-thiazolidin-3-yl)-2-oxoethyl)quinoline-4-carboxamide] | 78 µL/min/mg | 460 nM | 0.046 nM | 44 μL/min/1E6 | 480 µM (≈ 217 µg/mL) | 0.000068 s⁻¹ | 1100000 M⁻¹ s⁻¹ | 0.066 nM |  |  |  | 
C[C@@H]1CN(c2ccc3nccc(C(=O)NCC(=O)N4CSC[C@H]4C#N)c3c2)C[C@H]1C (single isomer, unassigned) [Example 226, N-(2-((R)-4-Cyanothiazolidin-3-yl)-2-oxoethyl)-6-((3R*,4R*)-3,4-dimethylpyrrolidin-1-yl)quinoline-4-carboxamide] |  | 660 nM | 0.2 nM | 44 μL/min/1E6 |  |  |  | 0.044 nM | 4.5 µM (≈ 1.91 µg/mL) | 94 µL/min/mg |  | 
CC1(CC(F)F)CN(c2ccc3nccc(C(=O)NCC(=O)N4CSC[C@H]4C#N)c3c2)C1 [Example 133, (R)—N-(2-(4-Cyanothiazolidin-3-yl)-2-oxoethyl)-6-(3-(2,2-difluoroethyl)-3-methylazetidin-1-yl)quinoline-4-carboxamide] | 40 µL/min/mg | 370 nM | 0.1 nM | 8.8 μL/min/1E6 | < 380 µM | 0.000073 s⁻¹ | 1200000 M⁻¹ s⁻¹ | 0.066 nM |  |  |  | 
N#C[C@@H]1CSCN1C(=O)CNC(=O)c1ccnc2ccc(-n3ccc(-c4ccccc4)c3)cc12 [Example 218, (R)—N-(2-(4-Cyanothiazolidin-3-yl)-2-oxoethyl)-6-(3-phenyl-1H-pyrrol-1-yl)quinoline-4-carboxamide] | 37 µL/min/mg | 390 nM | 0.068 nM | 18 μL/min/1E6 | < 0.16 µM | 0.00032 s⁻¹ | 670000 M⁻¹ s⁻¹ | 0.48 nM |  |  |  | 
CC1CC2(C1)CN(c1ccc3nccc(C(=O)NCC(=O)N4CSC[C@H]4C#N)c3c1)C2 [Example 149, (R)—N-(2-(4-Cyanothiazolidin-3-yl)-2-oxoethyl)-6-(6-methyl-2-azaspiro[3.3]heptan-2-yl)quinoline-4-carboxamide] |  | 470 nM | 0.097 nM | 7 μL/min/1E6 |  | 0.000039 s⁻¹ | 4800000 M⁻¹ s⁻¹ | 0.0087 nM |  |  | 56 µL/min/mg | 130 µM (≈ 56.6 µg/mL)

Further lines, with some results ahead:

microsomal CLint [1, 5] | IC50 [2] | IC50 [3] | rHep CLint [4] | solubility (Kinetic solubility; [6]) | hFAP Binding assay k(off) (hFAP (M39-A757)) | hFAP Binding assay k(on) (hFAP (M39-A757)) | Kd (hFAP (M39-A757)) | solubility (Kinetic solubility; [7]) | HLM CLint ([1]; n = 1 or average of n = 2-3) | SMILES | microsomal CLint [1] | solubility (Kinetic solubility; kinetic from dmso stock)
61 µL/min/mg | 280 nM | 0.073 nM | 47 μL/min/1E6 | 550 µM | 0.000092 s⁻¹ | 2100000 M⁻¹ s⁻¹ | 0.039 nM |  |  | C[C@H]1N(c2ccc3nccc(C(=O)NCC(=O)N4CSC[C@H]4C#N)c3c2)CC1(F)F (mixture of isomers) [Example 159, N-(2-((R)-4-Cyanothiazolidin-3-yl)-2-oxoethyl)-6-((RS)-3,3-difluoro-2-methylazetidin-1-yl)quinoline-4-carboxamide] |  | 
45 µL/min/mg | 210 nM | 0.05 nM | 33 μL/min/1E6 | 1.8 µM (≈ 0.798 µg/mL) | 0.000074 s⁻¹ | 1100000 M⁻¹ s⁻¹ | 0.068 nM |  |  | N#C[C@@H]1CSCN1C(=O)CNC(=O)c1ccnc2ccc(N3CC4C(C3)C4(F)F)cc12 (stereo partly drawn) [Example 160, N-(2-((R)-4-Cyanothiazolidin-3-yl)-2-oxoethyl)-6-(6,6-difluoro-3-azabicyclo[3.1.0]hexan-3-yl)quinoline-4-carboxamide] |  | 
120 µL/min/mg | 130 nM | 0.04 nM | 20 μL/min/1E6 | 0.59 µM (≈ 0.263 µg/mL) |  |  | 0.11 nM |  |  | N#C[C@@H]1CSCN1C(=O)CNC(=O)c1ccnc2ccc(-n3cc4c(n3)CCCC4)cc12 [Example 115, (R)—N-(2-(4-Cyanothiazolidin-3-yl)-2-oxoethyl)-6-(4,5,6,7-tetrahydro-2H-indazol-2-yl)quinoline-4-carboxamide] |  | 
97 µL/min/mg | 360 nM | 0.12 nM | 16 μL/min/1E6 | 140 µM (≈ 66.9 µg/mL) | 0.00014 s⁻¹ | 1800000 M⁻¹ s⁻¹ | 0.033 nM |  |  | CC1(CC(F)(F)F)CN(c2ccc3nccc(C(=O)NCC(=O)N4CSC[C@H]4C#N)c3c2)C1 [Example 131, (R)—N-(2-(4-Cyanothiazolidin-3-yl)-2-oxoethyl)-6-(3-methyl-3-(2,2,2-trifluoroethyl)azetidin-1-yl)quinoline-4-carboxamide] |  | 
57 µL/min/mg | 86 nM | 0.076 nM | 51 μL/min/1E6 | < 1.6 µM | 0.000026 s⁻¹ | 2500000 M⁻¹ s⁻¹ | 0.01 nM |  |  | N#C[C@@H]1CSCN1C(=O)CNC(=O)c1ccnc2ccc(N3CCC(F)(c4ccccc4)CC3)cc12 [Example 223, (R)—N-(2-(4-Cyanothiazolidin-3-yl)-2-oxoethyl)-6-(4-fluoro-4-phenyl-piperidin-1-yl)quinoline-4-carboxamide] |  | 
